Values joined by “and” are separate entries in the source; they are usually repeats but may differ in a detail not shown here. Equal values may be shown once.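 Test compounds were applied to cells in 96-well plates for 48 hours at 5 doses. GI50 = concentration required for 50% inhibition of growth. At the TGI there is no net growth.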
Tests used:
Assay in all cases: NCI tumour cell line growth inhibition, 48 h
A498 renal = test system: A498 renal
SNB-75 CNS = test system: SNB-75 CNS
SF-268 CNS = test system: SF-268 CNS
EKVX NSCLC = test system: EKVX NSCLC
HOP-62 NSCLC = test system: HOP-62 NSCLC
RXF 393 renal = test system: RXF 393 renal
HCC-2998 colon = test system: HCC-2998 colon
K-562 leukemia = test system: K-562 leukemia
T-47D breast = test system: T-47D breast
DU-145 prostate = test system: DU-145 prostate

SMILES	TGI (A498 renal) [µM]	TGI (SNB-75 CNS) [µM]	TGI (SF-268 CNS)	TGI (EKVX NSCLC) [µM]	TGI (HOP-62 NSCLC)	TGI (RXF 393 renal) [µM]	TGI (HCC-2998 colon) [µM]	TGI (K-562 leukemia)	GI50 (HOP-62 NSCLC) [µM]	TGI (T-47D breast) [µM]	TGI (DU-145 prostate) [µM]	GI50 (A498 renal) [µM]	GI50 (SF-268 CNS) [µM]	GI50 (EKVX NSCLC) [µM]	GI50 (T-47D breast) [µM]	GI50 (DU-145 prostate) [µM]	GI50 (RXF 393 renal) [µM]	GI50 (K-562 leukemia) [µM]	GI50 (SNB-75 CNS) [µM]	GI50 (HCC-2998 colon) [µM]
COc1cccc(-c2cc(=O)c3cc4c(cc3[nH]2)OCO4)c1	1.45	0.245	> 69.5 µM	> 100	21.9 µM	0.474	0.934	> 100 µM												
COc1cc(C(=O)N[C@H]2CCc3cc(OC)c(OC)c(OC)c3-c3ccc(SC)c(=O)cc32)cc(OC)c1OC		48.6	25 µM and 49 µM	25	25 µM and > 100 µM		0.159	25 µM and > 100 µM	0.47											
CCOc1cccc2c1N[S@@](=O)S2		> 100	> 100 µM	> 100				> 100 µM												
COC(=O)C(C(=O)C(=O)Nc1ccc(C)cc1C)c1csc(-n2nc(-c3ccccc3)cc2-c2ccccc2)n1 (centres undefined)	> 100	52.6	> 100 µM	> 100	> 100 µM	> 100	> 100	> 100 µM												
CC(/C=C/C(O)=C1/C(=O)CNC1=O)=C\[C@@H](C)[C@H]1O[C@@]2(C)O[C@H](C(=O)[C@@H]3O[C@@]32C)[C@@H]1C	29.1	63.1	43.9 µM	39.2	43.1 µM	25.3		> 100 µM		37.3	40.1									
O=c1c2c(-c3ccccc3)c3ccccc3nc2cnn1-c1ccccc1	> 100	> 100	> 100 µM	> 100	> 100 µM	> 100	> 100	> 100 µM												
CC(C)(C)NCC(O)COc1c(Br)c(Br)c(Br)c2c1OC(C)(C)C2 (centres undefined)	3.33		3.38 µM	3.02	3.7 µM	3.83		2.94 µM	1.89	3.59	2.84	1.85	1.73	1.61	1.65	1.51	2.14	1.54		
C=C1C(=O)C23[C@H](O)C1CC[C@H]2[C@]12COC3(O)[C@@H](O)[C@@H]1C(C)(C)CC[C@@H]2O	22.7	38.7	18.3 µM	34.6	36.1 µM	10.9	29.9	15.6 µM												
COC(=O)c1cc(=O)nc2cc3cccccc3n12	> 100	> 100		> 100	> 100 µM	> 100	> 100	> 100 µM												
CC1=Nc2ccccc2SC(c2c(Cl)cccc2Cl)C1 (centres undefined)	3.74	5.67	2.73 µM	3.82	3.76 µM	2.69	3.18	1.71 µM												
CC1CC2(S(=O)(=O)c3ccccc3)ON1CC2S(=O)(=O)c1ccccc1 (centres undefined)		> 100	> 100 µM	> 100	> 100 µM	> 100	> 100	> 100 µM												
OC1=CN=COc2ccccc21	> 100	> 100	> 100 µM	> 100	> 100 µM	> 100	> 100	> 100 µM												
COc1ccc(/C=C(\NC(=O)c2ccccc2)c2nc3ccccc3[nH]2)cc1OC	> 100	> 100	> 100 µM	> 100	> 100 µM	> 100	> 100	> 100 µM												
CC(=O)/C=C/c1ccc(Nc2c3ccccc3nc3occ(Cl)c23)cc1		59.4	17.5 µM	78.2	61.3 µM	7.15	14.6	13.3 µM	19.5	76.3			3.16	27.2	4.82		0.497	2.45	18.3	2.93
CCCCCCC(O)CC[C@H]1CCC[C@@H](C)N1 (some centres undefined)	> 10	> 31.6	> 31.6 µM	> 100	> 31.6 µM	> 100	> 100	> 100 µM												
O=C1CCC2(c3ccccc3)Nc3ccccc3N12 (centres undefined)	> 100	> 100	> 100 µM	> 100	> 100 µM	> 100	> 100	> 100 µM												
CCOC(=O)c1sc(-c2ccc(OS(=O)(=O)C[C@]34CCC(CC3=O)C4(C)C)c(C=O)c2)nc1C	1.17	2.8	2.47 µM	> 50	3.27 µM	2.75		> 13.5 µM	1.21	2.46	> 50	0.127	0.954	1.3	0.78	1.55	0.943	0.753	0.781	
C=C(CN1CCc2c([nH]c3ccccc23)C1)c1ccc(C(=O)Nc2ccccc2N)cc1			10.8 µM	13.5	20.8 µM	12.8	1.91	17 µM	4.08	50	13.9		2.89	2.14	8.5	3.85	4.27	1.01		0.731
COc1ccccc1-c1cc(=O)c2cc(C)c(C)c(C(=O)O)c2o1	> 100	> 100	> 100 µM	> 100	> 100 µM		> 100	> 100 µM												
CCOc1ccc(N=C(NC(=O)c2ccccc2)SC)cc1	> 100	> 100	> 100 µM	> 100	> 100 µM	> 100	> 100	> 100 µM												
COc1cc2c(c3c1c(=O)c1ccccc1n3C)C=CC(C)(C)O2		> 100	> 100 µM		> 100 µM	89		> 100 µM												
Clc1ccccc1CN1COc2c(ccc3cccnc23)C1	22.1	21.1	13.5 µM	15.9	7.25 µM		19.6	4.51 µM												

— PubChem BioAssay (NCI)
